Experimental data as given in US20240383881A1, “SYNTHETIC COMPOUND OF MYRICETIN AND NOBILETIN, AND PREPARATION METHOD THEREFOR” (The Second People's Hospital of Shenzhen (Shenzhen …, priority 2023, published 2024).

Key:
[1] = patients with hyperuricemia; Wang Yong et al. 2010; cited from earlier work
[2] = test system: mice with hyperuricemia; experiment: yeast extract feed-induced hyperuricemia model in KM mice; format: in vivo, KunMing (KM) mice; conditions: 30 mg/kg intragastric daily for 9 weeks; for serum UA levels vs model group: P<0.001, P<0.001, P<0.01; for serum creatinine level vs model group / serum urea nitrogen level vs model group: P<0.001; for serum urea nitrogen level vs model group: FIG. 2B; for liver index vs model group: FIG. 3B, P<0.001, P<0.05, P<0.01; for renal pathological morphology (HE staining): renal tissue, x200; for kidney index vs model group: FIG. 3A, P<0.05 (synthetic compound), P<0.001 (nobiletin)
Description: Specific pathogen free (SPF) grade KunMing (KM) mice, male, aged 5-6 weeks, weighing 22-25 g, are provided by Medical Experimental Animal Center of Guangdong Province with an animal qualification certificate number: SCXK (Yue) 2022-0002. The mice are raised in plastic cages, with free diet and drinking water. The indoor temperature of the plastic cages is (22±2)° C., and a relative humidity is maintained at 55%±5%. The lights are turned on and turned off for 12 hours, respectively. After quarantine and adaptation for one week, relevant experiments are conducted. The experimental plan is reviewed and approved by the Animal Welfare Ethics Committee of Zhongke Industry Holdings (Shenzhen) Co., Ltd. (application number: 20220082), and the operation and process of animal experiments follow the “Guidelines for the use of experimental animals in teaching” of the Chinese Society of Experimental Animals. Customized dietary feeds: 15% of yeast extract feeds, in compliance with regulations of GB13078 and GB14924.2, are provided by Jiangsu Synergy Pharmaceutical Biotechnology Co., Ltd. Production license: Su Si Zheng (2019) 01008. After 2 weeks of adaptive feeding in the plastic cages, the SPF grade KM mice are randomly divided into five groups: normal group (Control), model group (Model), synthetic compound group (PJW), myricetin group (Myricetin), and nobiletin group (Nobiletin). The dosage of each individual test medicine group is 30 milligrams per kilogram (mg/kg), and the medicines are dissolved in a 0.5% carboxymethyl cellulose sodium solution with a gavage volume of 10 milliliters per kilogram (mL/kg). Except for the normal group fed with basic feed, the other groups are fed with 15% of the yeast extract feeds for modeling. The normal group and the model group are intragastrically administered an equal amount of physiological saline daily, and the other groups are intragastrically administered with the corresponding medicine daily for 9 weeks. At the end of the experiment, that is, at the end of the 9th week of administration, the KM mice are fasted for 12 hours, then the KM mice are anesthetized with the isoflurane to take off the eyeballs from the KM mice for blood collection, followed by placing the collected blood to stand in the room temperature for 1 hour. After the standing, the blood is centrifuged at 3500 revolutions per minute (rpm/min) for 15 minutes to obtain centrifuged solutions, respectively, then serums of the centrifuged solution are separated to detect the levels of the uric acid, the creatinine, the urea nitrogen. The KM mice are sacrificed by dislocation of cervical vertebra after collecting blood, livers and kidneys are dissected from the KM mice and weighed to calculate indexes of the livers and the kidneys, an organ index of the formula is as follows: organ index=organ weight (g)/body mass (g)×100%. Then the livers and the kidneys are quickly packed, one portion of the packed sample is fixed with 4% paraformaldehyde solution for HE staining, and the other portion of the packed sample is stored at −80° C. in a refrigerator for later use. The renal tissues fixed with 4% paraformaldehyde from the kidneys are taken to be dehydrated with ethanol, embedded in paraffin, and sliced. After staining with hematoxylin-eosin, the pathological changes of renal tissues are observed under an upright optical microscope. All data are statistically analyzed using a GraphPad Prism 7.00 software, and the data are presented as a mean value±a standard error (standard deviation±standard error of the mean abbreviated as SD±SEM). Multiple group comparisons are conducted using a one-way Analysis of Variance (ANOVA), and pairwise comparisons between groups are conducted using a Dunnett's test. P<0.05 indicates a statistically significant difference.

[3] = molecular target: T1, organic anion transporter 4 (OAT4) (Homo sapiens, UniProt Q9NSA0); conditions: OAT4 overexpressed monoclonal cell line; Wang Ze et al. 2019; read-out: half-maximal inhibitory concentration (IC50) on OAT4; cited from earlier work
T1 sequence (Q9NSA0 1-550): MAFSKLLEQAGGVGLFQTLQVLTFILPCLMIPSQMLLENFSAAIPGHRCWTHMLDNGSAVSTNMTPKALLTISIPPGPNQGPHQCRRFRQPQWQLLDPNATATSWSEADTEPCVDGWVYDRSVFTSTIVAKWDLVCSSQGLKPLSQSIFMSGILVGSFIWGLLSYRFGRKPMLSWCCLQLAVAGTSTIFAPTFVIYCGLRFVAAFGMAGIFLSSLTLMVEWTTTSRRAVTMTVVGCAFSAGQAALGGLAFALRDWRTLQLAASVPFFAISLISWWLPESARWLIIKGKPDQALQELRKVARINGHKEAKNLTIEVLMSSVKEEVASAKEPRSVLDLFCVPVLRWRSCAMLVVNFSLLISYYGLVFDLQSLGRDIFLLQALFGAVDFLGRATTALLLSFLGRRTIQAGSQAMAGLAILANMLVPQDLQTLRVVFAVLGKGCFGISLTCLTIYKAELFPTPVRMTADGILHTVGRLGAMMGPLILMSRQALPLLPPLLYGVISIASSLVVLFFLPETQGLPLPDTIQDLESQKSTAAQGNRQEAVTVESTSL

Compound | serum uric acid (UA) levels in patients [1] | serum UA levels vs model group ([2]; FIG. 1) | serum creatinine level vs model group ([2]; FIG. 2A) | serum urea nitrogen level vs model group [2] | liver index vs model group [2] | renal pathological morphology (HE staining) ([2]; FIG. 4) | IC50 [3] [nM] | kidney index vs model group [2] | serum UA effect compared with monomer groups ([2]; FIG. 1) | effect on creatinine compared with monomer medicines ([2]; FIG. 2A) | organ index effect compared with monomer groups ([2]; FIGS. 3A-3B) | improvement of renal pathological morphology compared with monomer medicines ([2]; HE staining, FIG. 4)
O=c1c(O)c(-c2cc(O)c(O)c(O)c2)oc2cc(O)cc(O)c12 [myricetin] | significantly reduce | significantly reduced | significantly reduced | significantly reduced | significantly reduced | improve renal injury | – | – | – | – | – | –
COc1ccc(-c2cc(=O)c3c(OC)c(OC)c(OC)c(OC)c3o2)cc1OC [nobiletin] | – | significantly reduced | significantly reduced | significantly reduced | significantly reduced | improve renal injury | 556 | significantly reduced | – | – | – | –
COc1cc(OC)c2c(=O)c(OCCCC(=O)Oc3c(-c4ccc(OC)c(OC)c4)oc4c(OC)c(OC)c(OC)c(OC)c4c3=O)c(-c3cc(OC)c(OC)c(OC)c3)oc2c1 [synthetic compound] | – | significantly reduced | significantly reduced | significantly reduced | significantly reduced | improve renal injury | – | significantly reduced | better than that of each monomer group | better than that of monomer medicines | better than that of each monomer group | better than that of monomer medicines
